Results taken from US20170008888A1 (KYORIN PHARMACEUTICAL CO., LTD., priority 2014, published 2017).
Where two headings read alike, the source gives them in different places.

Assays:
human PBMCs = assay: Human PBMC TNF-α response to endotoxin (ELISA); assay type: cell-based; conditions: 0.1 μg/ml LPS 16 h, read-out: EC50 for the inhibition of the human PBMC TNF-α response to endotoxin, ave. ± S.D.
Method in brief: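 PBMCs at 2e6 cells/ml in RPMI 1640 with 10% charcoal-dextran-treated FBS were pre-treated 1 h at 37 °C with compound (4-point 1:5 dilution from 10 μM). Stimulation with 0.1 μg/ml E. coli 0111:B4 LPS for 16 h; TNF-α measured by ELISA (A450) in 25-fold diluted supernatant.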

ACK = target: T1, ACK (Homo sapiens, UniProt Q07912); assay: Probe-based (AX9989) kinase profiling in Jurkat lysate: ACK; assay type: binding; conditions: for inhibition at 0.1 µM: screening concentration 0.1 μM
T1 construct: screened for activity against several kinases in Jurkat cells; endogenous in cells; host or cells: Jurkat cell lysate
Method in brief: (§1)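 Read-out: LC/MS intensity of desthiobiotinylated kinase active-site peptides, percent inhibition normalized to no-compound lysate. Jurkat lysate with 20 mM MnCl2 received compound for 15 min at room temperature, then 5 μM AX9989 probe; duplicates.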

JAK1 = target: T2, JAK1 (Homo sapiens, UniProt P23458); assay: Probe-based (AX9989) kinase profiling in Jurkat lysate: JAK1; assay type: binding; conditions: for inhibition at 0.1 µM: screening concentration 0.1 μM
T2 construct: screened for activity against several kinases in Jurkat cells; endogenous in cells; host or cells: Jurkat cell lysate
Method in brief: as §1

[1] = target: T3, BRD4 bromodomain domain I [BRD4(1)] (Homo sapiens, UniProt O60885); assay: BRD4 bromodomain domain 1 inhibition assay (TR-FRET); assay type: binding; conditions: screening concentration 10 μM
T3 construct: BRD4 bromodomain domain I [BRD4(1)]; purchased Cayman Chemicals
Method in brief: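 0.5% DMSO, in triplicate, using Cayman BRD4(1) TR-FRET protocol with slight modification. 670/620 nm ratio normalized to 10 μM JQ1, with DMSO control set as 0% inhibition.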

ERK5 = target: T4, ERK5 (Homo sapiens, UniProt Q13164); assay: Probe-based (AX9989 acyl phosphate ATP probe) kinase profiling in Jurkat lysate: ERK5; assay type: binding; conditions: for IC50: Jurkat lysate; for inhibition at 0.1 µM: screening concentration 0.1 μM
T4 construct: screened for activity against several kinases in Jurkat cells; endogenous in cells; host or cells: Jurkat cell lysate
Method in brief: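 ERK5 IC50 values came from percent inhibition at the screening concentration, measured as loss of LC/MS signal of probe-labelled active-site peptides. Compound was added for 15 min at room temperature to Jurkat lysate (5 mg/ml, 20 mM MnCl2) before labelling with AX9989 ATP acyl phosphate probe at 5 μM.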

ABL or ARG = assay: Probe-based (AX9989) kinase profiling in Jurkat lysate: ABL or ARG; assay type: binding; conditions: for ABL or ARG Inhibition % at indicated screening concentration: screening concentration 1 μM
Method in brief: as §1

[2] = read-out: Kinase inhibition % at indicated screening concentration: ACK
[3] = read-out: Kinase inhibition % at indicated screening concentration: JAK1
[4] = calculated from percent inhibition of AX9989 labeling and the screening concentration
[5] = read-out: Kinase inhibition % at indicated screening concentration: ERK5
[6] = screening concentration 1.0 μM, read-out: Kinase inhibition % at indicated screening concentration: ACK
[7] = screening concentration 1.0 μM, read-out: Kinase inhibition % at indicated screening concentration: JAK1
[8] = screening concentration 1.0 μM, read-out: Kinase inhibition % at indicated screening concentration: ERK5
[9] = screening concentration 1 μM, read-out: ACK Inhibition % at indicated screening concentration
[10] = screening concentration 1 μM, read-out: JAK1 Inhibition % at indicated screening concentration
[11] = calculated from percent inhibition and screening concentration, AX9989 probe
[12] = screening concentration 1 μM, read-out: ERK5 Inhibition % at indicated screening concentration

T1 sequence (Q07912 whole entry): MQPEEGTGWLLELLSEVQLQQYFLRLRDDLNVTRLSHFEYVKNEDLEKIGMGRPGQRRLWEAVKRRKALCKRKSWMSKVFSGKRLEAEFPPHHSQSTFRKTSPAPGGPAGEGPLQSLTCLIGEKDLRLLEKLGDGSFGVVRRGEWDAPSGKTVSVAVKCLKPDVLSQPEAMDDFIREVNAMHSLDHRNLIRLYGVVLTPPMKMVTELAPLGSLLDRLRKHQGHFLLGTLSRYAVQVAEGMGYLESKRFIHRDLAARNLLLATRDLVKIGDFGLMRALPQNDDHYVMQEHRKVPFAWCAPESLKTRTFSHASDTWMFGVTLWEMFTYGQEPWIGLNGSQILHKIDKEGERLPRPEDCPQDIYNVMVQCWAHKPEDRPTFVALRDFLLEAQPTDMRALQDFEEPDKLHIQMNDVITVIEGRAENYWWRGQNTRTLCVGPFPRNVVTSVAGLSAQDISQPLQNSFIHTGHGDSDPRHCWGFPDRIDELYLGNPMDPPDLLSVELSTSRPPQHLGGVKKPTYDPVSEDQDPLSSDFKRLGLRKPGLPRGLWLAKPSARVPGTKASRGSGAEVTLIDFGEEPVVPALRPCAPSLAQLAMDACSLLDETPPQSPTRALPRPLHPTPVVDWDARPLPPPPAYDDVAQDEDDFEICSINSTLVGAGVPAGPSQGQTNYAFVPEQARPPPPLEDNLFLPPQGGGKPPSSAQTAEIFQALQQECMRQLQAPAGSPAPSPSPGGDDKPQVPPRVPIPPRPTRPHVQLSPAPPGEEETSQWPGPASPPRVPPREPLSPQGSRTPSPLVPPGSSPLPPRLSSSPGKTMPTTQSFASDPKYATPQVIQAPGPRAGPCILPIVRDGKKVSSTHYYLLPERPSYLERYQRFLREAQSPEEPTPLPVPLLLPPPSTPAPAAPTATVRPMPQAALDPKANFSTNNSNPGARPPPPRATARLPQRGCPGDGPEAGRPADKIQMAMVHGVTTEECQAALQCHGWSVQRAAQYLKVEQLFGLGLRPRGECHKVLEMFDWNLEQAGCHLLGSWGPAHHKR
T4 sequence (Q13164 whole entry): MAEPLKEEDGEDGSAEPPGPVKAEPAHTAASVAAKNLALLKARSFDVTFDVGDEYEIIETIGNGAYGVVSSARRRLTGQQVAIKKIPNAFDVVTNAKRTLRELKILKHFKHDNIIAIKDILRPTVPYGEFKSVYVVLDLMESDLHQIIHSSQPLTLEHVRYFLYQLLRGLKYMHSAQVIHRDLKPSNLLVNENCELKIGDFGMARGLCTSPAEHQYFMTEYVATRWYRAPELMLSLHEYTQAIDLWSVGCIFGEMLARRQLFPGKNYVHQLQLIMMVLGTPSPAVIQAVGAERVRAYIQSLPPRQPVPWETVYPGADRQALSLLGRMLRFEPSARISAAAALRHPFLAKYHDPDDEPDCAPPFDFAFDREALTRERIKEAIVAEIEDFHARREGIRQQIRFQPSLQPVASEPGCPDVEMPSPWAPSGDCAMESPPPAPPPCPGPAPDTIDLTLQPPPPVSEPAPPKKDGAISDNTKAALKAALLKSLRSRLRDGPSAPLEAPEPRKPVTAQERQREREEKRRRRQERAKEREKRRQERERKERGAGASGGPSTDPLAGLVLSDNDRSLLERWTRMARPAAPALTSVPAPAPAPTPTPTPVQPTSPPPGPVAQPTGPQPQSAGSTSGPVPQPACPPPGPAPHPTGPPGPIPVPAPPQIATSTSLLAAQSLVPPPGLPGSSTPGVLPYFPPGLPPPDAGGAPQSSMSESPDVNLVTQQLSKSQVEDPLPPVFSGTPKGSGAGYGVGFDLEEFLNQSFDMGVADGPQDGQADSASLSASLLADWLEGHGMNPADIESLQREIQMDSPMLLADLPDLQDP
T2 sequence (P23458 whole entry): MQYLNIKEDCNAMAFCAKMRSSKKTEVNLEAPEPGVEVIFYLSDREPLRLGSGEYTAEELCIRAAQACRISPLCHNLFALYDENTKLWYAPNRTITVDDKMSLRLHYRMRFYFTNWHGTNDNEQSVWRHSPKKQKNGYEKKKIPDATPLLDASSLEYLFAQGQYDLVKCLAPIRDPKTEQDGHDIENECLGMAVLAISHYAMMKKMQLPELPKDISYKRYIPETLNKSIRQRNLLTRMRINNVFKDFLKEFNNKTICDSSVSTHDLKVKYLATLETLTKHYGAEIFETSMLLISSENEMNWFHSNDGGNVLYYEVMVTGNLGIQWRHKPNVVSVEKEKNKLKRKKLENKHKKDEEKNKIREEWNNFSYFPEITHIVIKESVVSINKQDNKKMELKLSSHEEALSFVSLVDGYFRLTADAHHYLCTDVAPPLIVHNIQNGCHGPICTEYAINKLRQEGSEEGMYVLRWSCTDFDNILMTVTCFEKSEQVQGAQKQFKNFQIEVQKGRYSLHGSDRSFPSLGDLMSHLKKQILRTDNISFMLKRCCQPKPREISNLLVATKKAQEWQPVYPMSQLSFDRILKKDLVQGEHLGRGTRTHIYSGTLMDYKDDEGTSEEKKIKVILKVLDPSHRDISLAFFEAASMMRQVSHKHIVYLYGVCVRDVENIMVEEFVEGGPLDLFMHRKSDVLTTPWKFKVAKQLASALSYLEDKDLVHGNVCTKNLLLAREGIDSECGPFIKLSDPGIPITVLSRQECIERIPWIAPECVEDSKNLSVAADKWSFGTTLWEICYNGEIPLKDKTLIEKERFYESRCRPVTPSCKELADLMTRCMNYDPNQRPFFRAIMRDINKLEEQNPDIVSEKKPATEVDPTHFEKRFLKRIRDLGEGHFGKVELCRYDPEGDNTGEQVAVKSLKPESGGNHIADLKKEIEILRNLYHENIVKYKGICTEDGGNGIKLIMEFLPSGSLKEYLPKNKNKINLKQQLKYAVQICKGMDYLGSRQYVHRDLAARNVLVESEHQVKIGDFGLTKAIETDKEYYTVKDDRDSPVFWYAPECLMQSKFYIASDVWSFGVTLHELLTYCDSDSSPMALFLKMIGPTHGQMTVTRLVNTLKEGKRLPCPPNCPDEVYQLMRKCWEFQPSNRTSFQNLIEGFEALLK

| SMILES | EC50 (human PBMCs) | inhibition at 0.1 µM (ACK; [2]) | inhibition at 0.1 µM (JAK1; [3]) | inhibition at 10 µM [1] | IC50 (ERK5; [4]) | inhibition at 0.1 µM (ERK5; [5]) | Kinase inhibition % at indicated screening concentration: ABL or ARG (ABL or ARG; screening concentration 0.1 μM) | inhibition at 1 µM (ACK; [6]) | inhibition at 1 µM (JAK1; [7]) | inhibition at 1 µM (ERK5; [8]) | Kinase inhibition % at indicated screening concentration: ABL or ARG (ABL or ARG; screening concentration 1.0 μM) | inhibition at 1 µM (ACK; [9]) | inhibition at 1 µM (JAK1; [10]) | IC50 (ERK5; [11]) | inhibition at 1 µM (ERK5; [12]) | ABL or ARG Inhibition % at indicated screening concentration (ABL or ARG) | inhibition at 10 µM (ACK; screening concentration 10.0 μM, read-out: Kinase inhibition % at indicated screening concentration: ACK) | inhibition at 10 µM (JAK1; screening concentration 10.0 μM, read-out: Kinase inhibition % at indicated screening concentration: JAK1) | inhibition at 10 µM (ERK5; screening concentration 10.0 μM, read-out: Kinase inhibition % at indicated screening concentration: ERK5) | Kinase inhibition % at indicated screening concentration: ABL or ARG (ABL or ARG; screening concentration 10.0 μM) |
| --- | --- | --- | --- | --- | --- | --- | --- | --- | --- | --- | --- | --- | --- | --- | --- | --- | --- | --- | --- | --- |
| CCOc1cc(C(=O)N2CCC(F)C2)ccc1Nc1cc2c(cn1)N(C)C(=O)c1occc1N2C (stereo not shown) [Compound 72] | 1230 ± 150 nM | ≤ 35% | ≤ 35% | 70 to 85% | ≤ 50 nM | 75 to 90% | E (E is ≦35%) |  |  |  |  |  |  |  |  |  |  |  |  |  |
| CCOc1cc(C(=O)NCCN2CCCC2)ccc1Nc1cc2c(cn1)N(C)C(=O)c1ccccc1N2C [Compound 105] | 1100 nM |  |  | 70 to 85% | 101 to 500 nM |  |  | ≤ 35% | ≤ 35% | 75 to 90% | E (E is ≦35%) |  |  |  |  |  |  |  |  |  |
| CCOc1cc(C(=O)N2CCC(N3CCN(C)CC3)CC2)ccc1Nc1cc2c(cn1)N(C)C(=O)c1occc1N2C [Compound 65] | 460 nM | ≤ 35% | ≤ 35% | > 85% | ≤ 50 nM | > 90% | E (E is ≦35%) |  |  |  |  |  |  |  |  |  |  |  |  |  |
| CCOc1cc(C(=O)N2CCNC[C@H]2C)ccc1Nc1cc2c(cn1)N(C)C(=O)c1ccccc1N2C [Compound 82] | 1540 nM | ≤ 35% | ≤ 35% | > 85% | ≤ 50 nM | 75 to 90% | E (E is ≦35%) |  |  |  |  |  |  |  |  |  |  |  |  |  |
| CCOc1cc(C(=O)NCC2CC2)ccc1Nc1cc2c(cn1)N(C)C(=O)c1ccccc1N2C [Compound 57] | 1080 nM |  |  | < 70% | 101 to 500 nM |  |  | ≤ 35% | ≤ 35% | 50 to 75% | E (E is ≦35%) |  |  |  |  |  |  |  |  |  |
| CN1C(=O)c2occc2N(C)c2cc(N[C@H]3CC[C@H](N)CC3)ncc21 [Compound 53] | 4130 nM |  |  | 70 to 85% | 101 to 500 nM |  |  | ≤ 35% | ≤ 35% | 75 to 90% | E (E is ≦35%) |  |  |  |  |  |  |  |  |  |
| CCOc1cc(C(=O)N2CCC(NC(C)C)C2)ccc1Nc1cc2c(cn1)N(C)C(=O)c1ccccc1N2C (stereo not shown) [Compound T4] | 490 nM |  |  | > 85% |  |  |  |  |  |  |  | ≤ 35% | ≤ 35% | ≤ 50 nM | > 90% | E (E is ≦35%) |  |  |  |  |
| CCOc1cc(C(=O)N2CCCC(O)C2)ccc1Nc1cc2c(cn1)N(C)C(=O)c1ccccc1N2C (stereo not shown) [Compound 93] | 760 nM |  |  | > 85% | 50 to 100 nM |  |  | ≤ 35% | ≤ 35% | > 90% | E (E is ≦35%) |  |  |  |  |  |  |  |  |  |
| CCOc1cc(C(=O)N2CC[C@@H](N3CCCCC3)C2)ccc1Nc1cc2c(cn1)N(C)C(=O)c1occc1N2C [Compound 56] | 600 ± 190 nM | ≤ 35% | ≤ 35% | > 85% | ≤ 50 nM | > 90% | E (E is ≦35%) |  |  |  |  |  |  |  |  |  |  |  |  |  |
| CCOc1cc(C(=O)N2CCC[C@H](O)C2)ccc1Nc1cc2c(cn1)N(C)C(=O)c1ccccc1N2C [Compound 96] | 570 nM | ≤ 35% | ≤ 35% | > 85% | ≤ 50 nM | > 90% | E (E is ≦35%) |  |  |  |  |  |  |  |  |  |  |  |  |  |
| CCOc1cc(C(=O)N2CCN(CC3CC3)CC2)ccc1Nc1cc2c(cn1)N(C)C(=O)c1ccccc1N2C [Compound 10] | 1280 nM | ≤ 35% | ≤ 35% | 70 to 85% | ≤ 50 nM | 75 to 90% | E (E is ≦35%) |  |  |  |  |  |  |  |  |  |  |  |  |  |
| CCOc1cc(C(=O)N2CCC(N3CCCC3)CC2)ccc1Nc1cc2c(cn1)N(C)C(=O)c1ccccc1N2C [Compound 46, 3-(2-Ethoxy-4-(4-(pyrrolidin-1-yl)piperidine-1-carbonyl)phenylamino)-5,11-dimethyl-5H-benzo[e]pyrido[3,4-b][1,4]diazepin-10(11H)-one] | 470 nM |  |  | > 85% | ≤ 50 nM |  |  | ≤ 35% | ≤ 35% | > 90% | E (E is ≦35%) |  |  |  |  |  |  |  |  |  |
| CCOc1cc(C(=O)N2CCN(C(C)(C)C)CC2)ccc1Nc1cc2c(cn1)N(C)C(=O)c1ccccc1N2C [Compound 94] | 980 nM | ≤ 35% | ≤ 35% | 70 to 85% | ≤ 50 nM | 75 to 90% | E (E is ≦35%) |  |  |  |  |  |  |  |  |  |  |  |  |  |
| CCOc1cc(C(=O)N2CCC(N3CCCC3)CC2)ccc1Nc1cc2c(cn1)N(C)C(=O)c1occc1N2C [Compound 91, 6-((2-Ethoxy-4-(4-(pyrrolidin-1-yl)piperidine-1-carbonyl)phenyl)amino)-4,9-dimethyl-4H-furo[3,2-e]pyrido[3,4-b][1,4]diazepin-10(9H)-one] | 710 nM | ≤ 35% | ≤ 35% | > 85% | ≤ 50 nM | > 90% | E (E is ≦35%) |  |  |  |  |  |  |  |  |  |  |  |  |  |
| CN1C(=O)c2ccccc2N(C)c2cc(Nc3ccc(C(=O)N4CC[C@@H](N(C)C)C4)cc3F)ncc21 [Compound 110] | 1760 ± 500 nM |  |  | < 70% | ≤ 50 nM |  |  |  |  |  |  |  |  |  |  |  | ≤ 35% | ≤ 35% | > 90% | E (E is ≦35%) |
| CN1CCC(N2CCN(C(=O)c3ccc(Nc4cc5c(cn4)N(C)C(=O)c4ccccc4N5C)c(OC(F)F)c3)CC2)CC1 [Compound T76] | 1110 nM |  |  | 70 to 85% |  |  |  |  |  |  |  | ≤ 35% | ≤ 35% | ≤ 50 nM | > 90% | E (E is ≦35%) |  |  |  |  |
| CCOc1cc(C(N)=O)ccc1Nc1cc2c(cn1)N(C)C(=O)c1ccccc1N2C [Compound 51] | 2040 nM | ≤ 35% | ≤ 35% | < 70% | 101 to 500 nM | 35 to 50% | E (E is ≦35%) |  |  |  |  |  |  |  |  |  |  |  |  |  |
| CCOc1cc(C(=O)N2CCC(CN3CCOCC3)CC2)ccc1Nc1cc2c(cn1)N(C)C(=O)c1ccccc1N2C [Compound 120] | 860 nM |  |  | > 85% | ≤ 50 nM |  |  | ≤ 35% | ≤ 35% | > 90% | E (E is ≦35%) |  |  |  |  |  |  |  |  |  |
| CCOc1cc(C(=O)N2CC[C@@H](N(C)C)C2)ccc1Nc1cc2c(cn1)N(C)C(=O)c1ccccc1N2C [Compound 115] | 840 ± 530 nM |  |  | 70 to 85% | ≤ 50 nM |  |  | ≤ 35% | ≤ 35% | > 90% | E (E is ≦35%) |  |  |  |  |  |  |  |  |  |
